Measurements taken from patent US12187742B2 (XRAD Therapeutics, Inc., priority 2018, dated 2025).
Structures can show the parent of a compound that is named as a salt.

Molecular target: ATM (Homo sapiens (Human), UniProt Q13315)
Test: ATM in Cell Western Assay (pKAP1 in etoposide-treated MCF-7 cells)
Type: cell-based
Conditions: MCF-7 cells, etoposide 100 μM, 1 hr, pKAP1 readout
Protocol: Assay of Compounds ATM and DNA-PK Inhibition
ATM in Cell Western Assay:
Next day, add corresponding concentration of compounds using pin tool (Echo 550), the final top concentration is 1 μM, 3-fold series dilution, total 10 doses. Then add etoposide (Sigma, #E1383) to a final concentration of 100 μM. Incubate at 37° C. for 1 hr. Fix cells by adding 25 μL of fixing solution (8% paraformaldehyde) for 20 minutes at ambient temperature. Permeabilize cells for 5 washes with 1×PBS (phosphate buffered saline) containing 0.1% Triton X-100; each wash is for 5 minutes. […] The next day, wash the plate 5 times with 1×PBST (1×PBS containing 0.1% Tween-20). […] Wash the cells for 5 times with 1×PBST (1×PBS containing 0.1% Tween-20) at ambient temperature, using gentle shaking in the dark. After the last wash
remove wash solution, turn plate upside down onto a thin paper towel and centrifuge at 1000 rpm for 1 min to absorb all wash buffer. Clean the bottom of plate with moist lint free paper. Scan plate immediately using ODYSSEY CLx (LI-COR) for the best results.

Chain of ATM (Q13315 whole entry): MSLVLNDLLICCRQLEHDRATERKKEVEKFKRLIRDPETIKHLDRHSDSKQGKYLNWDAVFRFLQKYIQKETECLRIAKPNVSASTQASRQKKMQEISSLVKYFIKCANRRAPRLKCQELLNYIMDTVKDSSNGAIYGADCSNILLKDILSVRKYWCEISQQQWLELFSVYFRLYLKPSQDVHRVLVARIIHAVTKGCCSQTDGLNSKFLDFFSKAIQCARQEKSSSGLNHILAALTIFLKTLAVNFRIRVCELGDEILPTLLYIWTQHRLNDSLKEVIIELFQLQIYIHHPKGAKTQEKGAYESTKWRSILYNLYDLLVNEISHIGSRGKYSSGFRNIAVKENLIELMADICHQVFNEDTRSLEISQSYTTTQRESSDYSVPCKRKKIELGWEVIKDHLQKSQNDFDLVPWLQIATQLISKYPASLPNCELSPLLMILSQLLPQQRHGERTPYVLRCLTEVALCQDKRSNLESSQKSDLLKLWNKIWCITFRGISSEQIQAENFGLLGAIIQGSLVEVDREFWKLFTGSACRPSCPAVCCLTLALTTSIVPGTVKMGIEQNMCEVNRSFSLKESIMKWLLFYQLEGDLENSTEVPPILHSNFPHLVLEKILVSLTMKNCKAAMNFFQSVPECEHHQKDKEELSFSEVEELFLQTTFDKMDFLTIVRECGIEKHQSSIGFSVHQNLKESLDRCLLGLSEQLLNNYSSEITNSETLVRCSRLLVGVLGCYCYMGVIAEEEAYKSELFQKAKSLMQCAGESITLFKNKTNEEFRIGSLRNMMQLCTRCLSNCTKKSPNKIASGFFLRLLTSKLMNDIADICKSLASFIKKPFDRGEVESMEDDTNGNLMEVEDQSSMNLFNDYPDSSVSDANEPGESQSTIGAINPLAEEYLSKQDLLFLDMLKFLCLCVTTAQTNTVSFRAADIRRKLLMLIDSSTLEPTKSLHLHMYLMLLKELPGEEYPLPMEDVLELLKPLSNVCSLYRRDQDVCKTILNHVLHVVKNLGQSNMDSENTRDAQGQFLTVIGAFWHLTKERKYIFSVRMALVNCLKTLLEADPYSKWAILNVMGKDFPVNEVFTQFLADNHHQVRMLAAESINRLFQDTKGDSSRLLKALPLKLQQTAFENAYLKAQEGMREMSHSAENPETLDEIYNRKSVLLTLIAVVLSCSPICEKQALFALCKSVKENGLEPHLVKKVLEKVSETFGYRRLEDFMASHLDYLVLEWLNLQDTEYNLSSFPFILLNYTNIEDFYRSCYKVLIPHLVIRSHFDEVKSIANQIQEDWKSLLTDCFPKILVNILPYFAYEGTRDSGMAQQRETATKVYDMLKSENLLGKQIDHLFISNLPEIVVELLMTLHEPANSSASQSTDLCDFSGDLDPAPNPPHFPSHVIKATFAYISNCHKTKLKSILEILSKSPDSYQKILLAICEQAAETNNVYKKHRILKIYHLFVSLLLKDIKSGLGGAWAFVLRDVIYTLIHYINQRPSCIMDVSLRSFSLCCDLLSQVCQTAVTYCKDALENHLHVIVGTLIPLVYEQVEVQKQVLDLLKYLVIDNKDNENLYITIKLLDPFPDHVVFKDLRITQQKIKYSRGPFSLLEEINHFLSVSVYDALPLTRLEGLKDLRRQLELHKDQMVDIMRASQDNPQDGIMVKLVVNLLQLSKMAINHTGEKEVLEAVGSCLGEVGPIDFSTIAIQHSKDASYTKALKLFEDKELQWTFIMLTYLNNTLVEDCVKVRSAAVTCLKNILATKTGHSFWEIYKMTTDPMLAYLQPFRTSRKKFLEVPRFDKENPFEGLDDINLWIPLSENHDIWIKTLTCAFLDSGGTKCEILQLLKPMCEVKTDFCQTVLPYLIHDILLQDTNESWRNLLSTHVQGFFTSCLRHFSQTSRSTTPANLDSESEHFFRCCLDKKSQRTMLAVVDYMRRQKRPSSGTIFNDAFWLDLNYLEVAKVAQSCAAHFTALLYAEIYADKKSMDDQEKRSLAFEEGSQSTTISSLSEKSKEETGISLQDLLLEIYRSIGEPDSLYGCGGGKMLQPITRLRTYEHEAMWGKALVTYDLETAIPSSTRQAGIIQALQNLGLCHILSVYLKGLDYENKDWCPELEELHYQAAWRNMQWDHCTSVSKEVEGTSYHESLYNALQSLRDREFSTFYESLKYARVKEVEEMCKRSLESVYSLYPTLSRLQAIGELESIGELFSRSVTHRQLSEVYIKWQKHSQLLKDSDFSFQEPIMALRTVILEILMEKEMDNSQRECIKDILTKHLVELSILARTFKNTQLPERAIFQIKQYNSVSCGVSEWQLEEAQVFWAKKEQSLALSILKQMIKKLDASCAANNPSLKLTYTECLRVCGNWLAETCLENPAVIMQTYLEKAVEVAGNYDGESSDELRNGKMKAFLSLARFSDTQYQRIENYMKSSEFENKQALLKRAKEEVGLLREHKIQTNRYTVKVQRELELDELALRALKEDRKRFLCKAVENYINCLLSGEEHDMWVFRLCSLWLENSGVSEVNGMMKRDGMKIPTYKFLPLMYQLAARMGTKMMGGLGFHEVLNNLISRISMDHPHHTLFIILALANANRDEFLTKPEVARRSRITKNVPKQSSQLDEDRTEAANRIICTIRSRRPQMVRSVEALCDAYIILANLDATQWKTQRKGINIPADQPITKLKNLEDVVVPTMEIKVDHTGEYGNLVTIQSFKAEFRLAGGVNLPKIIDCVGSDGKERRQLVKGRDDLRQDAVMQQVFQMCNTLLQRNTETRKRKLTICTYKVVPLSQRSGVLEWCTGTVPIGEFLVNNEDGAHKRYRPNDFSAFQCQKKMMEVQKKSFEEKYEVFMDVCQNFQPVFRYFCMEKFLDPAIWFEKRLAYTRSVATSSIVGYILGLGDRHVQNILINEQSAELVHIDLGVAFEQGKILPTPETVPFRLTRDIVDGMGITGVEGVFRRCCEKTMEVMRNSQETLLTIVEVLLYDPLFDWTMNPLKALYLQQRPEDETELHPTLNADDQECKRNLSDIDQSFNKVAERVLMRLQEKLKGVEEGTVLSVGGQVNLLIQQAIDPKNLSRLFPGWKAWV

Row | Compound | IC50
1 | Cc1ccc(S(=O)(=O)Nc2cc(-c3ccc4ncc5c(c4c3)C3(CCC3)C(=O)N5C)cnc2OCCCN2C(C)(C)CCCC2(C)C)cn1 [Example 211, 6-Methyl-N-(5-(3′-methyl-2′-oxo-2′,3′-dihydrospiro[cyclobulane-1,1′-pyrrolo[2,3-c]quinolin]-8′-yl)-2-(3-(2,2,6,6-tetramethylpiperidin-1-yl)propoxy)pyridin-3-yl)pyridine-3-sulfonamide] | > 100 nM
2 | CN1CC=C(c2ncc(-c3ccc4ncc5c(c4c3)C3(CCC3)C(=O)N5C)cc2NS(C)(=O)=O)CC1 [Example 276, N-(1′-Methyl-5-(3′-methyl-2-oxo-2′,3′-dihydrospiro[cyclobutane-1,1′-pyrrolo[2,3-c]quinolin]-8′-yl)-1′,2′,3′,6′-tetrahydro-[2,4′-bipyridin]-3-yl)methanesulfonamide] | 1 to 100 nM
3 | CN(C)CCCOc1ncc(-c2ccc3ncc4c(c3c2)C2(CCC2)C(=O)N4C)cc1S(=O)(=O)N(C)C [Example 234, 2-(3-(Dimethylamino)propoxy)-N,N-dimethyl-5-(3′-methyl-2′-oxo-2′,3′-dihydrospiro[cyclobutane-1,1′-pyrrolo[2,3-c]quinolin]-8′-yl)pyridine-3-sulfonamide] | 1 to 100 nM
4 | CC(C)Nc1cc(-c2ccc3ncc4c(c3c2)C2(CC2)C(=O)N4C)cnc1OCCCN(C)C [Example 34, 8′-(6-(3-(Dimethylamino)propoxy)-5-(isopropylamino)pyridin-3-yl)-3′-methylspiro[cyclopropane-1,1′-pyrrolo[2,3-c]quinolin]-2′(3′-H)-one] | > 100 nM
5 | CN(C)CC1CN(c2ncc(-c3ccc4ncc5c(c4c3)C3(CC3)C(=O)N5C)cc2NS(=O)(=O)C2CC2)C1 [Example 122, N-(2-(3-((Dimethylamino)methyl)azetidin-1-yl)-5-(3′-methyl-2′-oxo-2′,3′-dihydrospiro[cyclopropane-1,1′-pyrrolo[2,3-c]quinolin]-8′-yl)pyridin-3-yl)cyclopropanesulfonamide] | 1 to 100 nM
6 | CN1C(=O)C2(CCC2)c2c1cnc1ccc(-c3cnc(N4CCS(=N)(=O)CC4)c(NS(=O)(=O)c4ccccc4)c3)cc21 (racemic) [Example 138, rac-N-(2-(1-Imino-1-oxido-1λ^6-thiomorpholino)-5-(3′-methyl-2′-oxo-2′,3′-dihydrospiro[cyclobutane-1,1′-pyrrolo[2,3-c]quinolin]-8′-yl)pyridin-3-yl)benzenesulfonamide hydrochloride] | > 100 nM
7 | CN(C)CCCOc1ncc(-c2ccc3ncc4c(c3c2)C2(CCC2)C(=O)N4C)nc1NS(C)(=O)=O [Example 263, N-(3-(3-(Dimethylamino)propoxy)-6-(3′-methyl-2′-oxo-2′,3′-dihydrospiro [cyclobutane-1,1′-pyrrolo[2,3-c]quinolin]-8′-yl)pyrazin-2-yl) methanesulfonamide] | 1 to 100 nM
8 | CN1C(=O)C2(CC2)c2c1cnc1ccc(-c3ccc4nc(Cl)ccc4c3)cc21 [Example 41, 8′-(2-Chloroquinolin-6-yl)-3′-methylspiro [cyclopropane-1,1′-pyrrolo [2,3-c]quinolin]-2′(3′-H)-one] | > 100 nM
9 | CC(Oc1cc(-c2ccc3ncc4c(c3c2)C2(CC2)C(=O)N4C)cnc1OCCCN(C)C)c1ccccc1 (centres unmarked) [Example 95, 8′-(6-(3-(Dimethylamino)propoxy)-5-(1-phenylethoxy)pyridin-3-yl)-3′-methylspiro[cyclopropane-1,1′-pyrrolo[2,3-c]quinolin]-2′(3′-H)-one] | > 100 nM

Same assay, conditions: pKAP1 in etoposide-treated MCF-7 cells

Row | Compound | IC50
10 | CC(C)NCCOc1ncc(-c2cc3c4c(cnc3cc2F)N(C)C(=O)C42CN(C(N)=O)C2)cc1NS(C)(=O)=O [Example 517, 7′-Fluoro-8′-(6-(2-(isopropylamino)ethoxy)-5-(methylsulfonamido)pyridin-3-yl)-3′-methyl-2′-oxo-2′,3′-dihydrospiro[azetidine-3,1′-pyrrolo[2,3-c]quinoline]-1-carboxamide] | > 100 nM
11 | COc1ccc(N2CC3(C2)C(=O)N(C)c2cnc4cc(F)c(-c5cnc(OCCNC(C)C)c(NS(C)(=O)=O)c5)cc4c23)cc1OC [Example 546, N-(5-(1-(3,4-Dimethoxyphenyl)-7′-fluoro-3′-methyl-2′-oxo-2′,3′-dihydrospiro[azetidine-3,1′-pyrrolo[2,3-c]quinolin]-8′-yl)-2-(2-(isopropylamino)ethoxy)pyridin-3-yl)methanesulfonamide] | 1 to 100 nM
12 | CC(C)NCCOc1ncc(-c2cc3c4c(cnc3cc2F)N(C)C(=O)C42CN(C[C@@H](O)CO)C2)cc1NS(C)(=O)=O [Example 509, (R)-N-(5-(1-(2,3-Dihydroxypropyl)-7′-fluoro-3′-methyl-2′-oxo-2′,3′-dihydrospiro[azetidine-3,1′-pyrrolo[2,3-c]quinolin]-8′-yl)-2-(2-(isopropylamino)ethoxy)pyridin-3-yl)methanesulfonamide] | > 100 nM
13 | CN1C(=O)C2(CCC2)c2c1cnc1ccc(-c3cnc(N4CC5(CNC5)C4)c(NS(C)(=O)=O)c3)cc21 [Example 346, N-(5-(3′-Methyl-2′-oxo-2′,3′-dihydrospiro[cyclobutane-1,1 pyrrole[2,3-c]quinolin]-8′-yl)-2-(2,6-diazaspiro[3.3]heptan-2-yl)pyridin-3-yl) methanesulfonamide formate] | > 100 nM
14 | CC(C)CN1CC2(C1)C(=O)N(C)c1cnc3cc(F)c(-c4cnc(OCCNC(C)C)c(NS(C)(=O)=O)c4)cc3c12 [Example 491, N-(5-(7′-Fluoro-1-isobutyl-3′-methyl-2′-oxo-2′,3′-dihydrospiro[azetidine-3,1′-pyrrolo[2,3-c]quinolin]-8′-yl)-2-(2-(isopropylamino)ethoxy)pyridin-3-yl)methanesulfonamide] | 1 to 100 nM
15 | CN1C(=O)C2(CCC2)c2c1cnc1cc(F)c(-c3cnc(OCCNCC(F)F)c(NS(C)(=O)=O)c3)cc21 [Example 379, N-(2-(2-((2,2-Difluoroethyl)amino)ethoxy)-5-(7fluoro-3′-methyl-2′-oxo-2′,3′-dihydrospiro[cyclobutane-1,1′-pyrrole[2,3-c]quinolin]-8′-yl)pyridin-3-yl) methanesulfonamide] | > 100 nM
16 | CC(C)NCCOc1ncc(-c2cc3c4c(cnc3cc2F)N(C)C(=O)C42CN(c3cncnc3)C2)cc1NS(C)(=O)=O [Example 549, N-(5-(7′-Fluoro-3′-methyl-2′-oxo-1-(pyrimidin-5-yl)-2′,3′-dihydrospiro[azetidine-3,1′-pyrrolo[2,3-c]quinolin]-8′-yl)-2-(2-(isopropylamino)ethoxy)pyridin-3-yl)methanesulfonamide] | > 100 nM
17 | CN1C(=O)C2(CCC2)c2c1cnc1ccc(-c3cnc(N4CCC(C)(N5CCCCC5)CC4)c(NS(C)(=O)=O)c3)cc21 [Example 354, N-(5-(3′-Methyl-2′-oxo-2′,3′-dihydrospiro[cyclobutane-1,1′-pyrrolo[2,3-c]quinolin]-8′-yl)-2-(4′-methyl-[l,4′-bipiperidin]-1′-yl)pyridin-3-yl)methanesulfonamide] | > 100 nM
18 | CC(C)NCCOc1ncc(-c2cc3c(cc2F)ncc2c3[C@]3(C[C@H](O)C3)C(=O)N2C)cc1NS(C)(=O)=O [Example 381, cis-N-(5-(7′-Fluoro-3-hydroxy-3′-methyl-2′-oxo-2′,3′-dihydrospiro[cyclobutane-1,1′-pyrrolo[2,3-c]quinolin]-8′-yl)-2-(2-(isopropylamino)ethoxy)pyridin-3-yl)methanesulfonamide hydrochloride] | 1 to 100 nM
19 | CC(C)NCCOc1ncc(-c2cc3c4c(cnc3cc2F)N(C)C(=O)C42CN(c3cccc(C(F)(F)F)c3)C2)cc1NS(C)(=O)=O [Example 537, N-(5-(7′-Fluoro-3′-methyl-2′-oxo-1-(3-(trifluoromethyl)phenyl)-2′,3′-dihydrospiro[azetidine-3,1′-pyrrolo[2,3-c]quinolin]-8′-yl)-2-(2-(isopropylamino)ethoxy)pyridin-3-yl)methanesulfonamide] | 1 to 100 nM
20 | COc1cccc(N2CC3(C2)C(=O)N(C)c2cnc4cc(F)c(-c5cnc(OCCNC(C)C)c(NS(C)(=O)=O)c5)cc4c23)c1 [Example 534, N-(5-(7′-Fluoro-1-(3-methoxyphenyl)-3′-methyl-2′-oxo-2′,3′-dihydrospiro [azetidine-3,1′-pyrrolo[2,3-c]quinolin]-8′-yl)-2-(2-(isopropylamino)ethoxy)pyridin-3-yl)methanesulfonamide] | 1 to 100 nM
21 | CN1CC2(C1)CN(c1ncc(-c3ccc4ncc5c(c4c3)C3(CCC3)C(=O)N5C)cc1NS(C)(=O)=O)C2 [Example 345, N-(5-(3′-Methyl-2′-oxo-2′,3′-dihydrospiro[cyclobutane-1,1′-pyrrolo[2,3-c]quinolin]-8′-yl)-2-(6-methyl-2,6-diazaspiro[3.3]heptan-2-yl)pyridin-3-yl)methanesulfonamide formate] | 1 to 100 nM
22 | CC(C)NCCOc1ncc(-c2cc3c(cc2F)ncc2c3[C@]3(C[C@H](CN(C)C)C3)C(=O)N2C)cc1NS(C)(=O)=O [Example 452, cis-N-(5-(3-((Dimethylamino)methyl)-7′-fluoro-3′-methyl-2′-oxo-2′,3′-dihydrospiro[cyclobutane-1,1′-pyrrolo[2,3-c]quinolin]-8′-yl)-2-(2-(isopropylamino)ethoxy)pyridin-3-yl)methanesulfonamide] | 1 to 100 nM
23 | CN(C)CCCOc1c(NS(C)(=O)=O)cc(-c2ccc3ncc4c(c3c2)C2(CCC2)C(=O)N4C)cc1C(=O)O [Example 399, 2-(3-(Dimethylamino)propoxy)-5-(3′-methyl-2′-oxo-2′,3′-dihydrospiro[cyclobutane-1,1′-pyrrolo[2,3-c]quinolin]-8′-yl)-3-(methylsulfonamido)benzoic acid] | > 100 nM
